Consider 18 molecules from ChEMBL document CHEMBL2046417, “Synthesis and evaluation of pyridylbenzofuran, pyridylbenzothiazole and pyridylbenzoxazole derivatives as ¹⁸F-PET imaging agents for β-amyloid plaques” (Bioorg Med Chem Lett, 2012).

The target in assay [1] is T1, Amyloid-beta precursor protein (Homo sapiens, UniProt P05067). Kind of assay: Displacement of [3H]AZD2184 from human amyloid beta(1 to 40). (In general: Displacement assays read how much labelled ligand stays bound in the presence of the test substance.)
The target of assay [2] is T1, Amyloid-beta precursor protein. Kind of assay: Binding affinity to amyloid beta(1 to 40) in cortical section isolated from Alzheimer disease patient at 1 nM by autoradiographic analysis.
Assay [3] concerns Mus musculus. Kind of assay: Binding affinity to amyloid beta(1 to 40) in Tg2576 mouse plaque at 150 nmol/kg, iv after 10 mins by autoradiography analysis. The class given is functional, organism-based.
Assay [4] addresses T1, Amyloid-beta precursor protein. Kind of assay: Binding affinity to amyloid beta(1 to 40) in cortical section isolated from Alzheimer disease patient by autoradiographic analysis. The conditions noted are these: tested as the 3H-labelled form.

Calls of active or inactive are those of the source. The rule behind the calls is not given here.

T1 sequence (P05067 whole entry): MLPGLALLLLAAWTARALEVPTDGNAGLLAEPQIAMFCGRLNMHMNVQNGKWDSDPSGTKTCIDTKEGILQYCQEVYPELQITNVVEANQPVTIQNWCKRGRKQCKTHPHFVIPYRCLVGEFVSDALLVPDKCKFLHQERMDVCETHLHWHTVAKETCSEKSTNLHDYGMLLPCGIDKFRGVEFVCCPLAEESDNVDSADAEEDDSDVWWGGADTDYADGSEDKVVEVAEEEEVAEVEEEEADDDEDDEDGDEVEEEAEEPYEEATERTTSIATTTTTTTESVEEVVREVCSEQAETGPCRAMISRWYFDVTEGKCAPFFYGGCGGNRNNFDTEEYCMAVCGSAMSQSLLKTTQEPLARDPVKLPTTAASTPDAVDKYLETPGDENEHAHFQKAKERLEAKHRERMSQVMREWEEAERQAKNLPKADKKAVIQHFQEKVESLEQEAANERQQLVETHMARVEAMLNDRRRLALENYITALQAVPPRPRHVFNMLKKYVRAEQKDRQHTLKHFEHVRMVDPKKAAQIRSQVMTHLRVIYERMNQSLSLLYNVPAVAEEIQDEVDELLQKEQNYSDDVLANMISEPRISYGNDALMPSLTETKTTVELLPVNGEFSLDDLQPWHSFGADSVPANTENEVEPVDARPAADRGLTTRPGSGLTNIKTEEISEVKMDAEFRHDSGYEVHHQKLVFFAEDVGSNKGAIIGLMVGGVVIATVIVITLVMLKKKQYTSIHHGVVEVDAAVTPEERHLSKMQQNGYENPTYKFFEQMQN

What is called IC50 is the point on the concentration scale where inhibition reaches its midpoint. Molecule `CNc1ccc(-c2cc3cc(C(N)=O)ccc3o2)nc1F` registered an IC50 in assay [1] of 32 nM.

Molecule `Oc1ccc2nc(-c3ccc(NCCF)nc3)sc2c1` registered an IC50 in assay [1] of 33 nM. This IC50 and that of the molecule before are within 1.5-fold of each other.

Consider `COc1ccc2oc(-c3ccc(C(N)=O)nc3F)cc2c1`, for which the IC50 in assay [1] is 32 nM. This IC50 and that of the molecule before are within 1.5-fold of each other.

Molecule `CNc1ccc(-c2nc3ccc(O)cc3s2)nc1F` yielded an IC50 in assay [1] of 44 nM.

The molecule `CNc1ccc(-c2cc3cc(O)ccc3o2)c(F)n1` [FLUTAFURANOL] showed an IC50 in assay [1] of 24 nM. For the same molecule, the outcome in assay [2] (tested as the 3H-labelled form) and in assay [3] (tested as the 3H-labelled form) was Active.

With `COc1ccc2nc(-c3ccc(NCCF)nc3)oc2c1`, in assay [1], the IC50 was found to be 35 nM. Besides, in assay [4], the outcome was inactive.

`CNc1ccc(-c2nc3ccc(O)cc3s2)c(F)n1` returned an IC50 in assay [1] of 124 nM.

For the molecule `CNc1ccc(-c2nc3ccc(O)cc3s2)cn1`, the IC50 in assay [1] turned out to be 22 nM. Against the preceding molecule, the IC50 is about 5.6-fold lower.

In assay [1], `CNc1ccc(-c2nc3ccc(OC)cc3s2)c(F)n1` had an IC50 of 14 nM.

In assay [1], `CNc1ccc(-c2cc3cc(C(N)=O)ccc3o2)c(F)n1` came in with an IC50 of 19 nM.

Regarding `CNc1ncc(-c2cc3cc(O)ccc3o2)cc1F`, the IC50 in assay [1] stood at 30 nM.

`Oc1ccc2nc(-c3ccc(NCCCF)nc3)oc2c1` gave an IC50 in assay [1] of 395 nM.

In assay [1], `Oc1ccc2nc(-c3ccc(NCCCF)nc3)sc2c1` registered an IC50 of 66 nM.

The molecule `Oc1ccc2nc(-c3ccc(NCCF)nc3)oc2c1` returned an IC50 in assay [1] of 158 nM.

Regarding `CNc1ccc(-c2cc3cc(O)ccc3o2)nc1F`, in assay [1], the IC50 worked out at 35 nM.

On to `CNc1ncc(-c2nc3ccc(O)cc3s2)cc1F`, for which the half-inhibitory concentration (IC50) in assay [1] stood at 98 nM.

As for `NC(=O)c1ccc(-c2cc3cc(O)ccc3o2)c(F)n1`, the IC50 in assay [1] is 44 nM.

Consider `CNc1ccc(-c2nc3ccc(O)cc3s2)cc1F` [FLUTEMETAMOL], for which, in assay [1], the IC50 amounted to 24 nM. Besides, the outcome in assay [2] and in assay [3] was Active.
